According to patent US7358074B2, “Human phosphatase RET31, and variants thereof” (Bristol-Myers Squibb Company, priority 2000, dated 2008):
Positions count from the first letter of the chain named. Entries after “also recorded” stand apart in the source; their conditions may differ.

Assays:
full-length RET31 = target: T1, full-length RET31 (Homo sapiens, UniProt Q9BY84, C584R/N284S/T302A); assay: phosphatase activity assay, hydrolysis of para-nitrophenylphosphate (pNPP); format: biochemical; conditions: 2 mM orthovanadate; pNPP substrate; FIG. 36
T1 construct: made in house
T1 sequence (Q9BY84 with tags, fused parts or gaps N284S/T302A/C584R): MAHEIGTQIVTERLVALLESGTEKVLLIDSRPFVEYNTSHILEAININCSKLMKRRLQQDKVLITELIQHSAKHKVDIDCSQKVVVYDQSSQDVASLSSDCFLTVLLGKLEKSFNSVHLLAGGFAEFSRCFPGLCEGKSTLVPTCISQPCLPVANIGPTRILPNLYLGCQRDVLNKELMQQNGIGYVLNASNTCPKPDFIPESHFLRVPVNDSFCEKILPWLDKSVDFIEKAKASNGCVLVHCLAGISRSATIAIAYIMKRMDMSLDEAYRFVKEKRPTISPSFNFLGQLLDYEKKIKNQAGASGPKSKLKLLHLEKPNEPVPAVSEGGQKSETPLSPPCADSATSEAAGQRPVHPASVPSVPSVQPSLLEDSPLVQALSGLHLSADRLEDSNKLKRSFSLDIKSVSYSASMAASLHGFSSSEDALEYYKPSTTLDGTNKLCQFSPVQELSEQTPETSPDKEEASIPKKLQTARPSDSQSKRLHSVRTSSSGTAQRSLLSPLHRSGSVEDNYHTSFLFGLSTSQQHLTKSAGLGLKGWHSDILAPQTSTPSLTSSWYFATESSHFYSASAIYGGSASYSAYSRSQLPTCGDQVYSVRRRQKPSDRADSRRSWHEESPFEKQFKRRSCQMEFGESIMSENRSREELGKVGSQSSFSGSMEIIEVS
Description: (§1) The phosphatase activity for the full-length RET31 and the M1 to T302 C-terminal RET31 GST fusion proteins were measured by assaying the ability of the proteins to hydrolyze para-nitrophenylphosphate, a compound known to be a substrate for phosphatases, as described in Krejsa, C. et al., J. Biol. Chem. Vol. 272, p. 11541-11549, 1997 (which is hereby incorporated in its entirety herein). The proteins are incubated with para-nitrophenylphosphate in a solution containing 10 mM imidazole, pH 7.0, 1 mM EDTA, 2 mM dithiothreitol, and 5 μg/ml BSA for 2 hours with and without sodium orthovanadate (Fisher) prepared in distilled water. The progress of the phosphatase reaction in a 96-well format was monitored by the OD405 nm on a plate reader (Molecular Devices) at 10-minute intervals in the kinetic mode.
(§2) The RET31-GST full length (FL), M1 to T302 C-terminal RET31-GST (trunc), or GST alone were purified and assayed for cleavage of para-nitrophenylphosphate (pNPP). The bars represent the average of triplicate determinations, and the standard deviations are as shown. Each protein preparation was assayed in the absence and presence of 2 mM of the phosphatase inhibitor orthovanadate. In addition, the full length and truncated protein phosphatase activity was blocked by the phosphatase inhibitor vanadate, as shown.

[1] = target: T2, M1 to T302 C-terminal RET31 (Homo sapiens, UniProt Q9BY84, I6V/M5I/N284S); assay: as above; format: biochemical; conditions: 2 mM orthovanadate; pNPP substrate; FIG. 36
T2 construct: made in house
T2 sequence (Q9BY84 1-302 M5I/I6V/N284S): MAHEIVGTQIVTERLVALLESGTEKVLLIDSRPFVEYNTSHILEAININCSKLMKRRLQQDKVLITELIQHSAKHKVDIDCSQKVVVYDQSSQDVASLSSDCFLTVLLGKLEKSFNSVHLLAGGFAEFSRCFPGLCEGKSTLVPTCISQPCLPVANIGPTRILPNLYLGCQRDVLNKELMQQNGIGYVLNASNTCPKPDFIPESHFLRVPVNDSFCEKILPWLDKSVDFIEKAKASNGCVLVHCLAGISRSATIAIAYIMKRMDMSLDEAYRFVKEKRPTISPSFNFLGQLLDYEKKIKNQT
Description: as §1, §2

RET31 = assay: para-nitrophenylphosphate (pNPP) phosphatase activity assay of purified RET31-GST fusion proteins; format: biochemical, human
Description: The bars represent the average of triplicate determinations, and the standard deviations are as shown. Each protein preparation was assayed in the absence and presence of 2 mM orthovanadate (”-van”). […] The phosphatase assays were performed as described in Example 57 herein.
In addition to assaying the full-length RET31 polypeptide (SEQ ID NO:109), a C-terminal deletion of RET31 was also assayed corresponding to amino acids M1 to T302 of SEQ ID NO:109).

human lung fibroblasts = assay: human lung fibroblast proliferation assay, Alamar Blue; format: cell-based; conditions: 3 days in basal medium, expected (should show)
Description: Human lung fibroblasts are obtained from Clonetics (San Diego, Calif.) and maintained in growth media from Clonetics. Dermal microvascular endothelial cells are obtained from Cell Applications (San Diego, Calif.). For proliferation assays, the human lung fibroblasts and dermal microvascular endothelial cells can be cultured at 5,000 cells/well in a 96-well plate for one day in growth medium. The cells are then incubated for one day in 0.1% BSA basal medium. After replacing the medium with fresh 0.1% BSA medium, the cells are incubated with the test proteins for 3 days. Alamar Blue (Alamar Biosciences, Sacramento, Calif.) is added to each well to a final concentration of 10%. The cells are incubated for 4 hr. Cell viability is measured by reading in a CytoFluor fluorescence reader. For the PGE2 assays, the human lung fibroblasts are cultured at 5,000 cells/well in a 96-well plate for one day. […]

## [Na+].[Na+].[Na+].[O]=[V]([O-])([O-])[O-] [orthovanadate, sodium orthovanadate]
full-length RET31
  effect of phosphatase inhibitor on phosphatase activity: blocked
[1]
  effect of phosphatase inhibitor on phosphatase activity: blocked

## [O]=[V]([O-])([O-])[O-] [vanadate]
RET31; 2 mM orthovanadate, full-length and M1 to T302 RET31-GST
  inhibition of RET31 phosphatase activity: blocked; also recorded: specifically inhibited

## FGF-2: FGF-2 (basic FGF), comparison growth factor
Human lung fibroblasts
  concentration showing stimulation of growth of fibroblasts: 10 to 2500 ng/mL

B1: M1 to T302 RET31 C-terminal deletion mutant: C-terminal deletion of RET31 corresponding to amino acids M1 to T302 of SEQ ID NO:109, GST fusion (protein, listed as Homo sapiens)
chain: T2 sequence (Q9BY84 1-302 M5I/I6V/N284S) with I5M, V6I, M180I, N193Y, S284N
modifications: GST fusion partner lacks entry
RET31; pNPP substrate, GST fusion proteins
  increase in phosphatase activity relative to the full-length RET31 polypeptide: five fold increase
RET31; purified GST fusion protein, pNPP substrate, compared to purified GST alone
  phosphatase activity via cleavage of the NPP substrate: demonstrated phosphatase activity
